Measured values: the supplement of paper PMC11061612

Legend:
5-Fluorouracil = compound: O=c1[nH]cc(F)c(=O)[nH]1 [5-Fluorouracil]; conditions: max 20 µM
Method in brief: (§1)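 Cancer cell lines in 1536-well plates (7.5 μl DMEM/F12 or RPMI, 10% FBS) were held 24 hours at 37°C and 5% CO2 and then dosed for 72 hours at a final DMSO of typically 0.2%. Viability was taken from CellTiter-Glo 2.0 luminescence, scaled between blank-well and DMSO-well means. Curves were fitted as two-parameter logistic models with a non-linear mixed effects model, from which the single-agent IC50 was taken.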

AZD1775 = compound: C=CCn1c(=O)c2cnc(Nc3ccc(N4CCN(C)CC4)cc3)nc2n1-c1cccc(C(C)(C)O)n1 [AZD1775]; conditions: max 3 µM
Method in brief: as §1

Gefitinib = compound: COc1cc2ncnc(Nc3ccc(F)c(Cl)c3)c2cc1OCCCN1CCOCC1 [Gefitinib]; conditions: max 10 µM
Method in brief: as §1

Etoposide = compound: COc1cc([C@@H]2c3cc4c(cc3[C@@H](O[C@@H]3O[C@@H]5CO[C@@H](C)O[C@H]5[C@H](O)[C@H]3O)[C@H]3COC(=O)[C@H]23)OCO4)cc(OC)c1O [Etoposide]; conditions: max 10 µM
Method in brief: as §1

SRA737 = compound: N#Cc1cnc(Nc2cc(NC[C@H]3CNCCO3)c(C(F)(F)F)cn2)cn1 [SRA737]; conditions: max 10 µM
Method in brief: as §1

SN-38 = compound: CCc1c2c(nc3ccc(O)cc13)-c1cc3c(c(=O)n1C2)COC(=O)[C@]3(O)CC [SN-38]; conditions: max 0.3 µM
Method in brief: as §1

AZD5363 = compound: C1CN(CCC1(C(=O)N[C@@H](CCO)C2=CC=C(C=C2)Cl)N)C3=NC=NC4=C3C=CN4 [AZD5363]; conditions: max 10 µM
Method in brief: as §1

Trametinib = compound: CC(=O)Nc1cccc(-n2c(=O)n(C3CC3)c(=O)c3c(Nc4ccc(I)cc4F)n(C)c(=O)c(C)c32)c1 [Trametinib]; conditions: max 1 µM
Method in brief: as §1

AZD5153 = compound: COc1nnc2ccc(N3CCC(c4ccc(OCCN5CCN(C)C(=O)[C@H]5C)cc4)CC3)nn12 [AZD5153]; conditions: max 1 µM
Method in brief: as §1

Doxorubicin = compound: COc1cccc2c1C(=O)c1c(O)c3c(c(O)c1C2=O)C[C@@](O)(C(=O)CO)C[C@@H]3O[C@H]1C[C@H](N)[C@H](O)[C@H](C)O1 [Doxorubicin]; conditions: max 1 µM
Method in brief: as §1

AZD0156 = compound: CN(C)CCCOc1ccc(-c2ccc3ncc4c(c3c2)n(C2CCOCC2)c(=O)n4C)cn1 [AZD0156]; conditions: max 3 µM
Method in brief: as §1

[1] = compound: O=C(Nc1ccc2[nH]nc(-c3ccncc3)c2c1)[C@@H]1CCN(CC(=O)N2CCN(c3ccc(-c4ncccn4)cc3)CC2)C1; conditions: max 5 µM
Method in brief: as §1

Dasatinib = compound: CC1=C(C(=CC=C1)Cl)NC(=O)C2=CN=C(S2)NC3=CC(=NC(=N3)C)N4CCN(CC4)CCO [Dasatinib]; conditions: max 2 µM
Method in brief: as §1

AZD7648 = compound: Cc1cc2ncnn2cc1Nc1ncc2c(n1)n(C1CCOCC1)c(=O)n2C [AZD7648]; conditions: max 10 µM
Method in brief: as §1

Selumetinib = compound: Cn1cnc2c(F)c(Nc3ccc(Br)cc3Cl)c(C(=O)NOCCO)cc21 [Selumetinib]; conditions: max 10 µM
Method in brief: as §1

AZD4320 = compound: CN(CC[C@H](CSC1=CC=CC=C1)NC2=C(C=C(C=C2)S(=O)(=O)NC(=O)C3=CC=C(C=C3)N4CCC(CC4)[C@H](C5=CC=CC=C5C6=CC=C(C=C6)Cl)O)S(=O)(=O)C(F)(F)F)CCO [AZD4320]; conditions: max 1 µM
Method in brief: as §1

Venetoclax = compound: CC1(C)CCC(CN2CCN(c3ccc(C(=O)NS(=O)(=O)c4ccc(NCC5CCOCC5)c([N+](=O)[O-])c4)c(Oc4cnc5[nH]ccc5c4)c3)CC2)=C(c2ccc(Cl)cc2)C1 [Venetoclax]; conditions: max 1 µM
Method in brief: as §1

Paclitaxel = compound: CC(=O)O[C@H]1C(=O)[C@@]2(C)[C@H]([C@H](OC(=O)c3ccccc3)[C@]3(O)C[C@H](OC(=O)[C@H](O)[C@@H](NC(=O)c4ccccc4)c4ccccc4)C(C)=C1C3(C)C)[C@]1(OC(C)=O)CO[C@@H]1C[C@@H]2O [Paclitaxel]; conditions: max 3 µM
Method in brief: as §1

AZD8186 = compound: C[C@@H](Nc1cc(F)cc(F)c1)c1cc(C(=O)N(C)C)cc2c(=O)cc(N3CCOCC3)oc12 [AZD8186]; conditions: max 10 µM
Method in brief: as §1

Prexasertib = compound: COc1cccc(OCCCN)c1-c1cc(Nc2cnc(C#N)cn2)n[nH]1 [Prexasertib]; conditions: max 1 µM
Method in brief: as §1

Lapatinib = compound: CS(=O)(=O)CCNCc1ccc(-c2ccc3ncnc(Nc4ccc(OCc5cccc(F)c5)c(Cl)c4)c3c2)o1 [Lapatinib]; conditions: max 10 µM
Method in brief: as §1

Gemcitabine = compound: Nc1ccn([C@@H]2O[C@H](CO)[C@@H](O)C2(F)F)c(=O)n1 [Gemcitabine]; conditions: max 0.3 µM
Method in brief: as §1

AZD1390 = compound: CC(C)n1c(=O)n(C)c2cnc3cc(F)c(-c4ccc(OCCCN5CCCCC5)nc4)cc3c21 [AZD1390]; conditions: max 0.3 µM
Method in brief: as §1

AZD5991 = compound: Cc1c2c(nn1C)CSCc1cc(n(C)n1)CSc1cc(c3ccccc3c1)OCCCc1c(C(=O)O)n(C)c3c-2c(Cl)ccc13 [AZD5991]; conditions: max 1 µM
Method in brief: as §1

Alisertib = compound: COc1cc(Nc2ncc3c(n2)-c2ccc(Cl)cc2C(c2c(F)cccc2OC)=NC3)ccc1C(=O)O [Alisertib]; conditions: max 10 µM
Method in brief: as §1

MK-2206 = compound: NC1(c2ccc(-c3nc4ccn5c(=O)[nH]nc5c4cc3-c3ccccc3)cc2)CCC1 [MK-2206]; conditions: max 10 µM
Method in brief: as §1

AZD2811 = compound: CCN(CCO)CCCOc1ccc2c(Nc3cc(CC(=O)Nc4cccc(F)c4)[nH]n3)ncnc2c1 [AZD2811]; conditions: max 1 µM
Method in brief: as §1

Palbociclib = compound: CC(=O)c1c(C)c2cnc(Nc3ccc(N4CCNCC4)cn3)nc2n(C2CCCC2)c1=O [Palbociclib]; conditions: max 10 µM
Method in brief: as §1

SG3199 = compound: CC1=CN2[C@@H](C1)C=NC3=CC(=C(C=C3C2=O)OC)OCCCCCOC4=C(C=C5C(=C4)N=C[C@@H]6CC(=CN6C5=O)C)OC [SG3199]; conditions: max 0.001 µM
Method in brief: as §1

Taselisib = compound: Cc1nc(-c2cn3c(n2)-c2ccc(-c4cnn(C(C)(C)C(N)=O)c4)cc2OCC3)n(C(C)C)n1 [Taselisib]; conditions: max 10 µM
Method in brief: as §1

Carboplatin = compound: C1CC(C1)(C(=O)[O-])C(=O)[O-].N.N.[Pt+2] [Carboplatin]; conditions: max 10 µM
Method in brief: as §1

Olaparib = compound: O=C(c1cc(Cc2n[nH]c(=O)c3ccccc23)ccc1F)N1CCN(C(=O)C2CC2)CC1 [Olaparib]; conditions: max 10 µM
Method in brief: as §1

Crizotinib = compound: C[C@@H](Oc1cc(-c2cnn(C3CCNCC3)c2)cnc1N)c1c(Cl)ccc(F)c1Cl [Crizotinib]; conditions: max 10 µM
Method in brief: as §1

AZD6738 = compound: C[C@@H]1COCCN1C2=NC(=NC(=C2)C3(CC3)[S@](=N)(=O)C)C4=C5C=CNC5=NC=C4 [AZD6738]; conditions: max 10 µM
Method in brief: as §1

Savolitinib = compound: C[C@@H](c1ccc2nccn2c1)n1nnc2ncc(-c3cnn(C)c3)nc21 [Savolitinib]; conditions: max 1 µM
Method in brief: as §1

Cell Line	IC50, cell viability 72 h (5-Fluorouracil) [µM]	IC50, cell viability 72 h (AZD1775) [nM]	IC50, cell viability 72 h (Gefitinib) [µM]	IC50, cell viability 72 h (Etoposide) [µM]	IC50, cell viability 72 h (SRA737) [µM]	IC50, cell viability 72 h (SN-38) [nM]	IC50, cell viability 72 h (AZD5363) [µM]	IC50, cell viability 72 h (Trametinib) [nM]	IC50, cell viability 72 h (AZD5153) [nM]	IC50, cell viability 72 h (Doxorubicin) [nM]	IC50, cell viability 72 h (AZD0156) [nM]	IC50, cell viability 72 h [1] [µM]	IC50, cell viability 72 h (Dasatinib) [nM]	IC50, cell viability 72 h (AZD7648) [µM]	IC50, cell viability 72 h (Selumetinib) [µM]	IC50, cell viability 72 h (AZD4320) [nM]	IC50, cell viability 72 h (Venetoclax) [nM]	IC50, cell viability 72 h (Paclitaxel) [nM]	IC50, cell viability 72 h (AZD8186) [µM]	IC50, cell viability 72 h (Prexasertib) [nM]	IC50, cell viability 72 h (Lapatinib) [µM]	IC50, cell viability 72 h (Gemcitabine) [nM]	IC50, cell viability 72 h (AZD1390) [nM]	IC50, cell viability 72 h (AZD5991) [nM]	IC50, cell viability 72 h (Alisertib) [µM]	IC50, cell viability 72 h (MK-2206) [µM]	IC50, cell viability 72 h (AZD2811) [nM]	IC50, cell viability 72 h (Palbociclib) [µM]	IC50, cell viability 72 h (SG3199) [nM]	IC50, cell viability 72 h (Taselisib) [nM]	IC50, cell viability 72 h (Carboplatin) [µM]	IC50, cell viability 72 h (Olaparib) [µM]	IC50, cell viability 72 h (Crizotinib) [µM]	IC50, cell viability 72 h (AZD6738) [µM]	IC50, cell viability 72 h (Savolitinib) [nM]
GAMG (Glioblastoma)	> 20	1690	> 10	4.44	> 10	55.5	8.42	> 1000	> 1000	237	> 3000	> 5	1710	> 10	> 10	> 1000	> 1000	7.35	2.98	82.9	> 10	88.1	> 300	> 1000	2.46	> 10	> 1000	> 10	> 1	3590	> 10	> 10	> 10	> 10	> 1000
YAPC (Pancreatic Carcinoma)	> 20	> 3000	> 10	> 10	> 10	113	> 10	> 1000	> 1000	> 1000	> 3000	> 5	> 2000	> 10	> 10	> 1000	> 1000	> 3000	> 10	641	> 10	212	> 300	> 1000	> 10	> 10	> 1000	> 10	> 1	> 10000	> 10	> 10	> 10	> 10	> 1000
OVCAR-5 (Ovarian Carcinoma)	> 20	> 3000	> 10	> 10	> 10	> 300	> 10	89.6	677	> 1000	> 3000	1.66	381	> 10	2.15	> 1000	> 1000	120	> 10	40.5	> 10	> 300	> 300	> 1000	> 10	> 10	> 1000	> 10	> 1	2070	> 10	> 10	> 10	5.14	> 1000
EW-11 (Ewing's Sarcoma)	> 20	> 3000	> 10	4.16	> 10	8.46	> 10	> 1000	> 1000	212	> 3000	> 5	> 2000	> 10	> 10	210	> 1000	35.6	> 10	62.2	> 10	55.7	> 300	423	> 10	6.38	> 1000	> 10	> 1	1000	> 10	> 10	5.63	5.93	> 1000
CAL-72 (Osteosarcoma)	> 20	587	> 10	6.02	> 10	42.3	> 10	> 1000	> 1000	> 1000	> 3000	> 5	> 2000	> 10	> 10	> 1000	> 1000	71.2	> 10	16.9	> 10	128	> 300	> 1000	5.04	> 10	> 1000	> 10	> 1	> 10000	> 10	> 10	> 10	2.87	> 1000
